Assay results as given in US20230365561A1, “BETA-LACTAMASE INHIBITORS AND THEIR PREPARATION” (NINGXIA ACADEMY OF AGRICUL TURE AND FORESTRY SCIENCES, priority 2020, published 2023).
Structures can show the parent of a compound that is named as a salt. Where two headings read alike, the source gives them in different places.

What was measured:
Assay type in all cases: cell-based
[1] = test system: P. aeruginosa clinical isolate (strain 9); assay: MIC by broth microdilution (alone and in combination with meropenam), strain 9; details: for MIC: Pseudomonas aeruginosa, compound alone
Outline: (§1)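 MIC values, in mg/L, record the lowest concentration giving no visible growth after 18-24 h at 37° C. Bacteria at approx. 5x10^5 CFU/mL in cation-adjusted Mueller-Hinton Broth II faced meropenem serially diluted 0.125-64 mg/L, alone or with test compound held at 4 µg/mL.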

[2] = test system: E. coli clinical isolate (strain 1); assay: MIC by broth microdilution (alone and in combination with meropenam), strain 1; details: for MIC: Escherichia coli, compound alone
Outline: as §1

[3] = test system: E. cloacae clinical isolate (strain 5); assay: MIC by broth microdilution (alone and in combination with meropenam), strain 5; details: for MIC: Enterobacter cloacae, compound alone
Outline: as §1

E. coli 8739 (strain 2) = assay: MIC by broth microdilution (alone and in combination with meropenam), strain 2; details: for MIC: Escherichia coli, compound alone
Outline: as §1

[4] = test system: E. cloacae 700323 (strain 6); assay: MIC by broth microdilution (alone and in combination with meropenam), strain 6; details: for MIC: Enterobacter cloacae, compound alone
Outline: as §1

[5] = test system: A. baumannii clinical isolate (strain 7); assay: MIC by broth microdilution (alone and in combination with meropenam), strain 7; details: for MIC: Acinetobacter baumannii, compound alone
Outline: as §1

[6] = test system: K. pneumoniae 700603 (strain 4); assay: MIC by broth microdilution (alone and in combination with meropenam), strain 4; details: for MIC: Klebsiella pneumoniae, compound alone
Outline: as §1

[7] = test system: A. baumannii 19606 (strain 8); assay: MIC by broth microdilution (alone and in combination with meropenam), strain 8; details: for MIC: Acinetobacter baumannii, compound alone
Outline: as §1

[8] = test system: K. pneumoniae clinical isolate (strain 3); assay: MIC by broth microdilution (alone and in combination with meropenam), strain 3; details: for MIC: Klebsiella pneumoniae, compound alone
Outline: as §1

[9] = test system: P. aeruginosa 9027 (strain 10); assay: MIC by broth microdilution (alone and in combination with meropenam), strain 10; details: for MIC: Pseudomonas aeruginosa, compound alone
Outline: as §1

[10] = read-out: MIC, antibacterial activity of example alone

Row | MIC [1, 10] | MIC [2, 10] | MIC [3, 10] | MIC (E. coli 8739 (strain 2); [10]) | MIC [4, 10] | MIC [5, 10] | MIC [6, 10] | MIC [7, 10] | MIC [8, 10] | MIC [9, 10] | MIC ([1]; read-out: MIC) | MIC ([2]; read-out: MIC) | MIC ([3]; read-out: MIC) | MIC (E. coli 8739 (strain 2); read-out: MIC) | MIC ([4]; read-out: MIC) | MIC ([5]; read-out: MIC) | MIC ([6]; read-out: MIC) | MIC ([7]; read-out: MIC) | MIC ([8]; read-out: MIC) | MIC ([9]; read-out: MIC) | Structure (SMILES) | further results
1 | > 64 µg/mL | > 64 µg/mL | > 64 µg/mL | > 64 µg/mL | > 64 µg/mL | > 64 µg/mL | > 64 µg/mL | > 64 µg/mL | > 64 µg/mL | > 64 µg/mL | – | – | – | – | – | – | – | – | – | – | CC(=O)NC1CCC(C(=O)NC(=N)[C@@H]2CC[C@@H]3CN2C(=O)N3OS(=O)(=O)[O-])CC1.[Na+] (stereo partly drawn) [Ex.40, Sodium (2S,5R)-2-(N-(4-acetamidocyclohexane-1-carbonyl)carbamimidoyl)-7-oxo-1,6-diazabicyclo[3.2.1]octan-6-yl Sulfate] | –
2 | > 64 µg/mL | > 64 µg/mL | > 64 µg/mL | > 64 µg/mL | > 64 µg/mL | > 64 µg/mL | > 64 µg/mL | > 64 µg/mL | > 64 µg/mL | > 64 µg/mL | – | – | – | – | – | – | – | – | – | – | CN1CCC(C(=O)NC(=N)[C@@H]2CC[C@@H]3CN2C(=O)N3OS(=O)(=O)[O-])CC1.[Na+] [Ex.41, Sodium (2S,5R)-2-(N-(1-methylpiperidine-4-carbonyl)carbamimidoyl)-7-oxo-1,6-diazabicyclo[3.2.1]octan-6-yl Sulfate] | –
3 | > 64 µg/mL | > 64 µg/mL | > 64 µg/mL | > 64 µg/mL | > 64 µg/mL | > 64 µg/mL | > 64 µg/mL | > 64 µg/mL | > 64 µg/mL | > 64 µg/mL | – | – | – | – | – | – | – | – | – | – | CN1CCN(CC(=O)NC(=N)[C@@H]2CC[C@@H]3CN2C(=O)N3OS(=O)(=O)[O-])CC1.[Na+] [Ex.42, Sodium (2S,5R)-2-(N-(2-(4-methylpiperazin-1-yl)acetyl)carbamimidoyl)-7-oxo-1,6-diazabicyclo[3.2.1]octan-6-yl Sulfate] | –
4 | – | – | – | – | – | – | – | – | – | – | > 64 µg/mL | > 64 µg/mL | > 64 µg/mL | > 64 µg/mL | > 64 µg/mL | > 64 µg/mL | > 64 µg/mL | > 64 µg/mL | > 64 µg/mL | > 64 µg/mL | N#Cc1ccc(C(=O)NC(=N)[C@@H]2CC[C@@H]3CN2C(=O)N3OS(=O)(=O)[O-])cc1.[Na+] [Ex.45, Sodium (2S,5R)-2-(N-(4-cyanobenzoyl)carbamimidoyl)-7-oxo-1,6-diazabicyclo[3.2.1]octan-6-yl Sulfate] | –
5 | – | – | – | – | – | – | – | – | – | – | > 64 µg/mL | > 64 µg/mL | > 64 µg/mL | > 64 µg/mL | > 64 µg/mL | > 64 µg/mL | > 64 µg/mL | > 64 µg/mL | > 64 µg/mL | > 64 µg/mL | CC(=O)N1CCCC[C@@H]1C(=O)NC(=N)[C@@H]1CC[C@@H]2CN1C(=O)N2OS(=O)(=O)[O-].[Na+] [Ex.46, Sodium (2S,5R)-2-(N-((R)-1-acetylpiperidine-2-carbonyl)carbamimidoyl)-7-oxo-1,6-diazabicyclo[3.2.1]octan-6-yl Sulfate] | –
6 | – | – | – | – | – | – | – | – | – | – | > 64 µg/mL | > 64 µg/mL | > 64 µg/mL | > 64 µg/mL | > 64 µg/mL | > 64 µg/mL | > 64 µg/mL | > 64 µg/mL | > 64 µg/mL | > 64 µg/mL | N=C(NC(=O)c1ccncn1)[C@@H]1CC[C@@H]2CN1C(=O)N2OS(=O)(=O)[O-].[Na+] [Ex.48, Sodium (2S,5R)-7-oxo-2-(N-(pyrimidine-4-carbonyl)carbamimidoyl)-1,6-diazabicyclo[3.2.1]octan-6-yl Sulfate] | –
7 | – | – | – | – | – | – | – | – | – | – | > 64 µg/mL | > 64 µg/mL | > 64 µg/mL | > 64 µg/mL | > 64 µg/mL | > 64 µg/mL | > 64 µg/mL | > 64 µg/mL | > 64 µg/mL | > 64 µg/mL | N=C(NC(=O)C1CCCN=N1)[C@@H]1CC[C@@H]2CN1C(=O)N2OS(=O)(=O)[O-].[Na+] (stereo partly drawn) [Ex.52, Sodium (2S,5R)-7-oxo-2-(N-(3,4,5,6-tetrahydropyridazine-3-carbonyl)carbamimidoyl)-1,6-diazabicyclo[3.2.1]octan-6-yl Sulfate] | –

The remaining lines, values behind:

Row | Structure (SMILES) | MIC [1, 10] | MIC [2, 10] | MIC [3, 10] | MIC (E. coli 8739 (strain 2); [10]) | MIC [4, 10] | MIC [5, 10] | MIC [6, 10] | MIC [7, 10] | MIC [8, 10] | MIC [9, 10] | MIC ([1]; read-out: MIC) | MIC ([2]; read-out: MIC) | MIC ([3]; read-out: MIC) | MIC (E. coli 8739 (strain 2); read-out: MIC) | MIC ([4]; read-out: MIC) | MIC ([5]; read-out: MIC) | MIC ([6]; read-out: MIC) | MIC ([7]; read-out: MIC) | MIC ([8]; read-out: MIC) | MIC ([9]; read-out: MIC) | further results
8 | N=C(N)NOCCC(=O)NC(=N)[C@@H]1CC[C@@H]2CN1C(=O)N2OS(=O)(=O)O [Ex.43, (2S,5R)-2-(N-(3-(guanidinooxy)propanoyl)carbamimidoyl)-7-oxo-1,6-diazabicyclo[3.2.1]octan-6-yl Hydrogen Sulfate] | > 64 µg/mL | > 64 µg/mL | > 64 µg/mL | > 64 µg/mL | > 64 µg/mL | > 64 µg/mL | > 64 µg/mL | > 64 µg/mL | > 64 µg/mL | > 64 µg/mL | – | – | – | – | – | – | – | – | – | – | –
9 | N=C(NC(=O)c1nc(-c2ccccc2)cs1)[C@@H]1CC[C@@H]2CN1C(=O)N2OS(=O)(=O)[O-].[Na+] [Ex.44, Sodium (2S,5R)-7-oxo-2-(N-(4-phenylthiazole-2-carbonyl)carbamimidoyl)-1,6-diazabicyclo[3.2.1]octan-6-yl Sulfate] | > 64 µg/mL | > 64 µg/mL | > 64 µg/mL | > 64 µg/mL | > 64 µg/mL | > 64 µg/mL | > 64 µg/mL | > 64 µg/mL | > 64 µg/mL | > 64 µg/mL | – | – | – | – | – | – | – | – | – | – | –
10 | N=C(N)NOCCCC(=O)NC(=N)[C@@H]1CC[C@@H]2CN1C(=O)N2OS(=O)(=O)O [Ex.47, (2S,5R)-2-(N-(4-(guanidinooxy)butanoyl)carbamimidoyl)-7-oxo-1,6-diazabicyclo[3.2.1]octan-6-yl Hydrogen Sulfate] | – | – | – | – | – | – | – | – | – | – | > 64 µg/mL | > 64 µg/mL | > 64 µg/mL | > 64 µg/mL | > 64 µg/mL | > 64 µg/mL | > 64 µg/mL | > 64 µg/mL | > 64 µg/mL | > 64 µg/mL | –
11 | N=C(NC(=O)c1ccc(C(F)(F)F)cc1)[C@@H]1CC[C@@H]2CN1C(=O)N2OS(=O)(=O)[O-].[Na+] [Ex.49, Sodium (2S,5R)-7-oxo-2-(N-(4-(trifluoromethyl)benzoyl)carbamimidoyl)-1,6-diazabicyclo[3.2.1]octan-6-yl Sulfate] | – | – | – | – | – | – | – | – | – | – | > 64 µg/mL | > 64 µg/mL | > 64 µg/mL | > 64 µg/mL | > 64 µg/mL | > 64 µg/mL | > 64 µg/mL | > 64 µg/mL | > 64 µg/mL | > 64 µg/mL | –
12 | N=C(NC(=O)c1ccc(C(F)(F)F)cn1)[C@@H]1CC[C@@H]2CN1C(=O)N2OS(=O)(=O)[O-].[Na+] [Ex.50, Sodium (2S,5R)-7-oxo-2-(N-(5-(trifluoromethyl)picolinoyl)carbamimidoyl)-1,6-diazabicyclo[3.2.1]octan-6-yl Sulfate] | – | – | – | – | – | – | – | – | – | – | > 64 µg/mL | > 64 µg/mL | > 64 µg/mL | > 64 µg/mL | > 64 µg/mL | > 64 µg/mL | > 64 µg/mL | > 64 µg/mL | > 64 µg/mL | > 64 µg/mL | –
13 | N=C(N)NCCC(=O)NC(=N)[C@@H]1CC[C@@H]2CN1C(=O)N2OS(=O)(=O)O [Ex.51, (2S,5R)-2-(N-(3-guanidinopropanoyl)carbamimidoyl)-7-oxo-1,6-diazabicyclo[3.2.1]octan-6-yl Hydrogen Sulfate] | – | – | – | – | – | – | – | – | – | – | > 64 µg/mL | > 64 µg/mL | > 64 µg/mL | > 64 µg/mL | > 64 µg/mL | > 64 µg/mL | > 64 µg/mL | > 64 µg/mL | > 64 µg/mL | > 64 µg/mL | –
14 | C[C@@H](O)[C@H]1C(=O)N2C(C(=O)O)=C(S[C@@H]3CN[C@H](C(=O)N(C)C)C3)[C@H](C)[C@H]12 [MER, meropenam, reference compound] | – | – | – | – | – | – | – | – | – | – | – | – | – | – | – | – | – | – | – | – | MIC, MER Alone ([1]; meropenam alone): 2.0 mg/L; MIC, MER Alone ([2]; meropenam alone): 2.0 mg/L; MIC, MER Alone ([3]; meropenam alone): 2.0 mg/L; MIC, MER Alone (E. coli 8739 (strain 2); meropenam alone): 2.0 mg/L; MIC, MER Alone ([4]; meropenam alone): 2.0 mg/L; MIC, MER Alone ([5]; meropenam alone): 2.0 mg/L; MIC, MER Alone ([6]; meropenam alone): 1.0 mg/L; MIC, MER Alone ([7]; meropenam alone): 1.0 mg/L; MIC, MER Alone ([8]; meropenam alone): 2.0 mg/L; MIC, MER Alone ([9]; meropenam alone): 2.0 mg/L
